According to PMC10208040, “Computational docking and in vitro analysis identifies novel arylidene analogue FPMXY-14 against renal cancer cells by attenuating Akt” (Oncology Research, 2021):
pIC50: −log10 of the molar value.

Molecular target: T1, Akt
T1 construct: gene AKT1
Experiment: Z'-LYTE fluorescence-based coupled-enzyme kinase assay
Assay type: biochemical

**Q.** `Cc1ccc(C)c2c1CC(=Cc1ccc(C(C)C)cc1)C2=O` [FPMXY-14, 2-(4-isopropyl-benzylidene)-4,7-dimethyl-indan-1-one] was tested. Which pIC50 did it give?
**A.** 6.83
